Test results: patent US9353415B2, “Methods for functional analysis of high-throughput experimental data and gene groups identified therefrom” (Thomson Reuters (Scientific) LLC, priority 2006, dated 2016)

Test system: CREB pathway
Experiment: microarray gene expression from the livers of rats exposed to drugs, mapped on pathway maps (signature networks method)
Format: in vivo
Details: rat liver, treated vs untreated, custom cDNA two-channel arrays, five repeats; no threshold for fold change and P-values; FIG. 16C
Description: This dataset contains microarray gene expression from the livers of rats exposed to three drugs: phenobarbital, mestranol, and tamoxifen. The data were produced by custom cDNA two-channel arrays. Five biological repeats were performed for each treatment and a set of five samples from the untreated animals were analyzed.
A pre-computed comprehensive set of overlapping canonical pathways derived from 450 signaling and metabolic pathway maps manually created using a general database, MetaCore™ was obtained. These pathways then were used as a framework for mapping experimental datasets as well as to calculate the network modules most relevant to specific pathways (FIG. 15). The maps feature approximately 3,000 proteins and over 2,000 overlapping human pathways. On these maps, typical signaling inputs (indicated by block arrows) are identified. The network modules were then generated as chains of interactions/reactions initiated at one of the signaling inputs and followed down to the last protein identified in the canonical pathway; such termini often are transcription factors and their targets. These pathways represent linear modules of cell signaling, usually parts of signaling cascades between secondary messengers and transcription factors. […]
FIG. 16C is the top scored CREB pathway map for the genes content of the network A. Gene expression was mapped without thresholds. […]

SMILES: CC/C(=C(\c1ccccc1)c1ccc(OCCN(C)C)cc1)c1ccccc1 [tamoxifen]
- direction of expression (fold change) of genes on the highest scored pathway map, CREB pathway: down-regulated
